The record followed here is patent US11926614B2, “1,2,4-triazole derivatives as tankyrase inhibitors” (priority 2018, dated 2024).

Assay [1] has as its target TNKS2 (Homo sapiens (Human), UniProt Q9H2K2). Nature of the assay: Biochemical IC50 TNKS2. The note with it: read-out: Biochemical IC50 TNKS2. An excerpt: (§1) XLfit (idbs) was used to determine the IC50-values in inhibition experiments. The following formula was chosen to fit the data points (Langmuir Binding Isotherm): fit=((A+(B*x))+4(C−B)*(1−exp((−1*D)*x)))/D)), res=(y−fit)

The subject of assay [2] is HEK293. Nature of the assay: Cellular IC50 HEK293. Format: cell-based.
Excerpt: as §1

Where [3] appears, read: Homo sapiens, HEK293, HEK293; read-out: Cellular IC50 HEK293.
Setting [4] is: Homo sapiens, HEK293, read-out: Cellular IC50 HEK293.

Like-named read-outs stand apart in the source and are kept apart here.

Sequence of TNKS2 (Q9H2K2 whole entry): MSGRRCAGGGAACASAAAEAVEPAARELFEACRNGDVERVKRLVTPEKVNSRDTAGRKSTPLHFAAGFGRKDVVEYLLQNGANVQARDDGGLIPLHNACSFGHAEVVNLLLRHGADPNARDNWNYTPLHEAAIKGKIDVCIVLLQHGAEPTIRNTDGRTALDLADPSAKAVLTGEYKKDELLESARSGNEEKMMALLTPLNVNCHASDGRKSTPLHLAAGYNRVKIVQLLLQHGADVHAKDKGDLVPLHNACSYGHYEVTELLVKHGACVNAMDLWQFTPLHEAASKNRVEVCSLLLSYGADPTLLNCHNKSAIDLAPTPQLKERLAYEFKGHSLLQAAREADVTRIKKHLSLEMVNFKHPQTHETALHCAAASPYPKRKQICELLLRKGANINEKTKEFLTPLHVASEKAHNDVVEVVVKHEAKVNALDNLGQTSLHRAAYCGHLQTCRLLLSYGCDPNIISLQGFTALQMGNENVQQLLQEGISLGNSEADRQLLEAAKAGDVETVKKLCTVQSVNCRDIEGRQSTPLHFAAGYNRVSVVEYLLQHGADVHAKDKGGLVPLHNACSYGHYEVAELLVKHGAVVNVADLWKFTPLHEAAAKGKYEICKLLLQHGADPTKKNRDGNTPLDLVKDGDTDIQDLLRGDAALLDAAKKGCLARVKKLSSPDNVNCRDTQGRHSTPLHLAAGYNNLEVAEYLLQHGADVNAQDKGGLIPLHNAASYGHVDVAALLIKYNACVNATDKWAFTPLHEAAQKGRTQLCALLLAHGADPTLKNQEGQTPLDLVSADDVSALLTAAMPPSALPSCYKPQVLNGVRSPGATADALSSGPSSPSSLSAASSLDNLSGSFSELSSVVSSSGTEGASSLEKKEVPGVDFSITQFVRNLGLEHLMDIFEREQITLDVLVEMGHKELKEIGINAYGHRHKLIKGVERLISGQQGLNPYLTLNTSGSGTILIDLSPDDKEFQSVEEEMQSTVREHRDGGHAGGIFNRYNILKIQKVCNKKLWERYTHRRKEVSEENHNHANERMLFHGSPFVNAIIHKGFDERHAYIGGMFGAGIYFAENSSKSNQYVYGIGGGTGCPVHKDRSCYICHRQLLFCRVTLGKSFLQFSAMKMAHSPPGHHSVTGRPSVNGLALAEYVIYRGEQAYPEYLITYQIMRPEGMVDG

Take `CCOc1ccc(C(=O)N[C@H]2C[C@H](c3nnc(-c4nccs4)n3-c3ccccc3F)C2)nc1` [Example 30, 5-ethoxy-N-((1S,3r)-3-(4-(2-fluorophenyl)-5-(thiazol-2-yl)-4H-1,2,4-triazol-3-yl)cyclobutyl)picolinamide]: the IC50 was determined as 2 nM in assay [1] and 16 nM in assay [2] (setting [3]).
In the case of `CCOc1ccc(-c2nnc(C34CC(NC(=O)c5ccnc6cccnc56)(C3)C4)n2-c2ccncc2)nc1` [Example 172, N-(3-(5-(5-ethoxypyridin-2-yl)-4-(pyridin-4-yl)-4H-1,2,4-triazol-3-yl)bicyclo[1.1.1]pentan-1-yl)-1,5-naphthyridine-4-carboxamide], the IC50 in assay [1] was found to be 9.4 nM; in assay [2] (Homo sapiens, HEK293; read-out: Cellular IC50 HEK293), 43 nM.
Consider `CCOc1ccc(-c2nnc([C@H]3C[C@H](NC(=O)c4cccc(C)n4)C3)n2-c2ccccc2F)nc1` [Example 119, N-((1S,3r)-3-(5-(5-ethoxypyridin-2-yl)-4-(2-fluorophenyl)-4H-1,2,4-triazol-3-yl)cyclobutyl)-6-methylpicolinamide], for which the IC50 in assay [1] turned out to be 5 nM; in assay [2] (setting [3]), 39 nM.
For `CCOc1ccc(-c2nnc([C@H]3C[C@H](NC(=O)c4cccc(C#N)n4)C3)n2-c2ccccc2F)nc1` [Example 53, 6-cyano-N-((1S,3r)-3-(5-(5-ethoxypyridin-2-yl)-4-(2-fluorophenyl)-4H-1,2,4-triazol-3-yl)cyclobutyl)picolinamide], in that order: 3.7 nM and 13 nM.
For `O=C(N[C@H]1C[C@H](c2nnc(-c3ccncn3)n2-c2ccccc2Cl)C1)c1cccc2cccnc12` [Example 4, N-((1S,3r)-3-(4-(2-chlorophenyl)-5-(pyrimidin-4-yl)-4H-1,2,4-triazol-3-yl)cyclobutyl)quinoline-8-carboxamide], in that order: 5.4 nM and 1 nM.
In the same order, the values of `CCOc1ccc(-c2nnc([C@H]3C[C@H](NC(=O)c4cc5cnccc5[nH]4)C3)n2-c2ccccc2F)nc1` [Example 157, N-((1S,3r)-3-(5-(5-ethoxypyridin-2-yl)-4-(2-fluorophenyl)-4H-1,2,4-triazol-3-yl)cyclobutyl)-1H-pyrrolo[3,2-c]pyridine-2-carboxamide] are 4.4 nM and 34 nM.
With `O=C(N[C@H]1C[C@H](c2nnc(-c3nccs3)n2-c2cccnc2)C1)c1ccccn1` [Example 109, N-((1r,3r)-3-(4-(pyridin-3-yl)-5-(thiazol-2-yl)-4H-1,2,4-triazol-3-yl)cyclobutyl)picolinamide], the IC50 in assay [1] stood at 800 nM; in assay [2] (setting [3]), 4700 nM.
On to `CCOc1ccc(-c2nnc([C@H]3C[C@H](NC(=O)c4ccccn4)C3)n2-c2ccc(C)s2)nc1` [Example 81, N-((1r,3r)-3-(5-(5-ethoxypyridin-2-yl)-4-(5-methylthiophen-2-yl)-4H-1,2,4-triazol-3-yl)cyclobutyl)picolinamide], for which the IC50 was 4.6 nM in assay [1] and 37 nM in assay [2] (setting [4]).
`Cc1cccc(-c2nnc([C@H]3C[C@H](NC(=O)c4cccc5nccnc45)C3)n2-c2ccccc2F)n1` [Example 201, N-((1S,3r)-3-(4-(2-fluorophenyl)-5-(6-methylpyridin-2-yl)-4H-1,2,4-triazol-3-yl)cyclobutyl)quinoxaline-5-carboxamide]: the IC50 in assay [1] amounted to 1.7 nM; in assay [2] (setting [4]), 1.5 nM.
Consider `CCOc1ccc(-c2nnc([C@H]3C[C@H](NC(=O)c4cc5cccnc5[nH]4)C3)n2-c2ccccc2F)nc1` [Example 152, N-((1S,3r)-3-(5-(5-ethoxypyridin-2-yl)-4-(2-fluorophenyl)-4H-1,2,4-triazol-3-yl)cyclobutyl)-1H-pyrrolo[2,3-b]pyridine-2-carboxamide], for which the IC50 amounted to 19 nM in assay [1] and 144 nM in assay [2] (setting [3]).
For `O=C(N[C@H]1C[C@H](c2nnc(-c3nccs3)n2-c2ccccc2)C1)c1ccccc1` [Example 34, N-((1r,3r)-3-(4-phenyl-5-(thiazol-2-yl)-4H-1,2,4-triazol-3-yl)cyclobutyl)benzamide], in that order: 290 nM and 921 nM.

What is called IC50 is the midpoint of a concentration-inhibition curve.
